Data on nine molecules can be found in PubChem BioAssay (NCI).

Experiment in all cases: growth of human tumour cells (NCI), 48 h
In assay [1] the test system is 786-0 renal.
Assay [2] relates to EKVX NSCLC.
In assay [3] the test system is HCT-116 colon.
The subject of assay [4] is HOP-92 NSCLC.
The test system of assay [5] is IGROV1 ovarian.
Assay [6] concerns M14 melanoma.
Assay [7] deals with MCF7 breast.
Assay [8] relates to NCI-H522 lung.
Assay [9] concerns SK-OV-3 ovarian.
Assay [10] deals with SN12C renal.

“And” between values parts separate entries of the source, which are not always exact repeats. Identical values can stand only once.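 In this assay, cells in 96-well plates receive the compound at five concentrations for 48 hours. Endpoints are linearly interpolated between the surrounding concentrations. GI50 is the concentration that inhibits growth by half. TGI denotes the concentration required for complete inhibition of growth.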 Bounds are passed on as bounds.

As to `COc1nnc2ccc(N3CCC(c4ccc(OCCN5CCN(C)C(=O)[C@H]5C)cc4)CC3)nn12`, the GI50 in assay [1] is 0.186 µM; in [2], 0.239 µM; in assay [3], 0.0723 µM; in [4], 0.0541 µM; in [5], 0.0876 µM; in assay [6], 0.0934 µM. The GI50 in assay [7] was 0.0234 µM; in assay [8], 0.0159 µM; in assay [9] it was 0.0774 µM; in assay [10] it was 0.606 µM. The TGI is above 100 µM in assay [1]; above 100 µM in [2]; above 100 µM in assay [3]; above 65.3 µM in assay [4]; above 100 µM in assay [5]; above 100 µM in [6]. Besides, the TGI in [7] is above 100 µM; in assay [8] it was 0.878 µM; in assay [9] it was above 42.1 µM; in assay [10], above 100 µM.
Consider `CN(C)C(=S)SCC(=O)Nc1ccccc1`, for which the TGI in assay [1], in [2], in assay [3], in assay [4], in assay [5] and in [6] was above 100 µM each time. The TGI in assay [7], in assay [8], in assay [9] and in [10] was above 100 µM throughout.
As to `CC1=C(C(=O)Nc2ccc(Cl)c(C(=O)OC(C)C)c2)SCCO1`, the TGI in assay [1] was above 100 µM; in assay [2], above 95.5 µM; in assay [3], above 77.4 µM; in [4], above 100 µM; in [5], above 81.1 µM; in [6], above 100 µM. Also, the TGI is above 90.4 µM in assay [7], 69.9 µM in assay [8], above 81.1 µM in assay [9] and above 100 µM in [10].
As for `CCC(=O)c1c(C(F)(F)F)n([O-])c2cc(F)c(F)cc2[n+]1=O`, the GI50 in assay [1] was 1.33 µM; in assay [2] it was 2.19 µM; in assay [3], 0.366 µM; in assay [4] it was 0.762 µM; in assay [5], 0.52 µM; in assay [6] it was 0.308 µM. For the same molecule, the GI50 in assay [7] was 0.623 µM; in assay [8], 0.615 µM; in [9] it was 1.86 µM; in [10], 0.649 µM. In addition, the TGI in assay [1] was found to be 2.71 µM; in assay [2] it was 4.91 µM; in [3], 1.51 µM; in assay [4], 2.19 µM; in assay [5], 1.49 µM; in assay [6], 0.951 µM. In addition, the figures for the TGI in assay [8], in assay [9] and in assay [10] were 2.69 µM, 3.88 µM and 2.07 µM, respectively.
`COc1cccc(/C=C2\COc3ccc(-c4ccccc4)cc3C2=O)c1`: the GI50 in assay [1] is 2.63 µM; in assay [2], 4.8 µM; in assay [3], 1.68 µM; in [4], 2.34 µM; in assay [5], 3.12 µM; in assay [6], 3.87 µM. In addition, the GI50 is 2.05 µM in [7], 1.86 µM in assay [8], 5.25 µM in [9] and 2.33 µM in [10]. The TGI in assay [1] was 6.45 µM; in assay [2], above 100 µM; in assay [3] it was 3.47 µM; in assay [4], 9.41 µM; in [5] it was 8.39 µM; in assay [6], 14.9 µM. In addition, the TGI in assay [7] amounted to 9.17 µM; in assay [8], 4.06 µM; in assay [9], 35.8 µM; in assay [10], 7.49 µM.
With `O=C(CN1C(=O)S/C(=C\C(Cl)=C\c2ccccc2)C1=O)NC1C=CS(=O)(=O)C1` (centres undefined), the GI50 in assay [1] was 1.8 µM; in [2] it was 2.19 µM; in [3], 0.377 µM; in assay [4], 1.67 µM; in assay [5] it was 1.31 µM; in assay [6] it was 1.31 µM. For the same molecule, the GI50 is 0.467 µM in assay [7], 0.299 µM in assay [8], 3.3 µM in [9] and 1.27 µM in assay [10]. In addition, the TGI in assay [1] came to 4.37 µM; in assay [2], 6.06 µM; in assay [3], 1.83 µM; in [4] it was 5.75 µM; in assay [5], 4.31 µM; in assay [6], 4.69 µM. Moreover, the TGI is above 100 µM in [7], 1.33 µM in assay [8], 32.6 µM in assay [9] and 5.51 µM in assay [10].
For `Cc1cc([N+](=O)[O-])c2ccccc2[n+]1[O-]`, the GI50 in assay [1] was 0.158 µM and 0.258 µM; in [2], 2.77 µM; in [3], 0.0472 µM and 0.0407 µM; in assay [4], 0.308 µM and 0.153 µM; in [5] it was 2.58 µM and 3.26 µM; in assay [6] it was 0.239 µM and 0.259 µM. Moreover, the GI50 in assay [7] is 0.0489 µM and 0.0342 µM; in assay [8] it was 0.739 µM and 0.303 µM; in assay [9], 1.94 µM and 3.33 µM; in [10], 0.278 µM and 0.27 µM. In addition, the TGI was 0.483 µM and 0.75 µM in assay [1]; 12 µM in assay [2]; 0.336 µM and 0.364 µM in assay [3]; 1.73 µM and 0.597 µM in assay [4]; 11.9 µM and 10.3 µM in [5]; 1.08 µM and 1.11 µM in assay [6]. For the same molecule, the TGI is 0.461 µM and 0.45 µM in assay [7]; 2.42 µM and 0.959 µM in [8]; 6.07 µM and 11.6 µM in [9]; 1.8 µM and 3.09 µM in assay [10].
For the molecule `NS(=O)(=O)OCCCCCCCOS(N)(=O)=O`, the TGI came out at 571 µM in [1]; 847 µM in assay [2]; 820 µM in [3]; 781 µM in assay [4]; 937 µM in [5]; 579 µM in assay [6]. In addition, the TGI in assay [7] was 1780 µM; in [8], 916 µM; in assay [9], 1570 µM; in assay [10] it was 1180 µM.
Turning to `CCN(CC)Cc1cc2[nH]c3c4ccc(Cl)cc4ncc3c2cc1OC`, the GI50 in assay [1] was 2.2 µM and 2.59 µM; in [2], 12.1 µM and 11.8 µM; in assay [3], 1.85 µM and 1.65 µM; in assay [4], 5.14 µM; in assay [5], 2.13 µM and 3.42 µM; in [6], 1.88 µM. The GI50 is 2.17 µM and 1.61 µM in [7]; 7.16 µM and 2.2 µM in assay [8]; 14.2 µM and 3.63 µM in assay [9]; 10.8 µM and 13.7 µM in [10]. Further, the TGI was 4.82 µM and 5.61 µM in assay [1]; 24.9 µM and 24.4 µM in assay [2]; 5.92 µM and 3.15 µM in [3]; 22.1 µM in [4]; 12.4 µM and 13.6 µM in assay [5]; 3.59 µM and 3.4 µM in [6]. In addition, the TGI in assay [7] was 8.37 µM and 3.29 µM; in assay [8], 17.7 µM and 4.97 µM; in assay [9], 27.3 µM and 12.1 µM; in assay [10], 22.7 µM and 26.7 µM.
